The source made the active and inactive calls. The calls are words filed in the database; no cut-off is given here.

Drawing on ChEMBL document CHEMBL4825706, “Synthesis and biological evaluation of selenogefitinib for reducing bleomycin-induced pulmonary fibrosis” (Bioorg Med Chem Lett, 2021), this text covers Activity and IC50 for 2 compounds.

For assay [1], the system named is Mus musculus. Nature of the assay: Antifibrotic activity in C57BL mouse model of BLM-induced lung fibrosis assessed as HYP level at 60 mg/kg (reference value: 5.31 +/- 0.79 ug/mg). The assay is classed as functional.
The subject of assay [2] is Mus musculus. Nature of the assay: Antifibrotic activity in C57BL mouse model of BLM-induced lung fibrosis assessed as IL-4 level in blood at 60 mg/kg measured after 14 days by flow cytometry (reference value: 2.72 +/- 0.14 pg/ml). Type of assay: functional. The following applies: time 14 day.
In assay [3] the test system is Mus musculus. Nature of the assay: Antifibrotic activity in C57BL mouse model of BLM-induced lung fibrosis assessed as IL-6 level in blood at 60 mg/kg measured after 14 days by flow cytometry (reference value: 2.36 +/- 0.16 pg/ml). The assay is classed as functional. Conditions: time 14 day.
For assay [4], the system named is Mus musculus. Kind of assay: Antifibrotic activity in C57BL mouse model of BLM-induced lung fibrosis assessed as TNF-alpha level in blood at 60 mg/kg measured after 14 days by flow cytometry (reference value: 3.12 +/- 0.11 pg/ml). The following applies: time 14 day. Type of assay: functional.
Assay [5] relates to Mus musculus. Kind of assay: Antifibrotic activity in C57BL mouse model of BLM-induced lung fibrosis assessed as MDA content at 60 mg/kg measured after 14 days (reference value: 9.93 +/- 1.41 nmol/ml). The following applies: time 14 day. The assay is classed as functional.
In assay [6] the test system is Mus musculus. Nature of the assay: Antifibrotic activity in C57BL mouse model of BLM-induced lung fibrosis assessed as reduction in alveolar wall thickness by measuring lung coefficient at 60 mg/kg by hematoxylin and eosin staining based assay (reference value: 12.89 +/- 2.52 g). The assay is classed as functional.
The subject of assay [7] is Mus musculus. Kind of assay: Antifibrotic activity in C57BL mouse model of BLM-induced lung fibrosis assessed as reduction in collagen deposition in the lung at 60 mg/kg by masson staining method. The assay is classed as functional, organism-based.
Assay [8] has as its system Mus musculus. Nature of the assay: Antifibrotic activity in C57BL mouse model of BLM-induced lung fibrosis assessed as reduction in infiltration of inflammatory cells at 60 mg/kg by hematoxylin and eosin staining based assay. Type of assay: functional, organism-based.
Another assay concerns L02. Kind of assay: Cytotoxicity against human L02 cells assessed as inhibition of cell growth measured by CCK8 assay. The assay is classed as functional, cell-based.
Assay [9] has as its target Epidermal growth factor receptor (Homo sapiens, UniProt P00533). Kind of assay: Inhibition of EGFR (unknown origin) by ADP-Glo kinase assay.
A short description of assay [10]: Cytotoxicity against human HBE cells assessed as inhibition of cell growth measured by CCK8 assay. Type of assay: ADME, cell-based.

Sequence of Epidermal growth factor receptor (P00533 whole entry): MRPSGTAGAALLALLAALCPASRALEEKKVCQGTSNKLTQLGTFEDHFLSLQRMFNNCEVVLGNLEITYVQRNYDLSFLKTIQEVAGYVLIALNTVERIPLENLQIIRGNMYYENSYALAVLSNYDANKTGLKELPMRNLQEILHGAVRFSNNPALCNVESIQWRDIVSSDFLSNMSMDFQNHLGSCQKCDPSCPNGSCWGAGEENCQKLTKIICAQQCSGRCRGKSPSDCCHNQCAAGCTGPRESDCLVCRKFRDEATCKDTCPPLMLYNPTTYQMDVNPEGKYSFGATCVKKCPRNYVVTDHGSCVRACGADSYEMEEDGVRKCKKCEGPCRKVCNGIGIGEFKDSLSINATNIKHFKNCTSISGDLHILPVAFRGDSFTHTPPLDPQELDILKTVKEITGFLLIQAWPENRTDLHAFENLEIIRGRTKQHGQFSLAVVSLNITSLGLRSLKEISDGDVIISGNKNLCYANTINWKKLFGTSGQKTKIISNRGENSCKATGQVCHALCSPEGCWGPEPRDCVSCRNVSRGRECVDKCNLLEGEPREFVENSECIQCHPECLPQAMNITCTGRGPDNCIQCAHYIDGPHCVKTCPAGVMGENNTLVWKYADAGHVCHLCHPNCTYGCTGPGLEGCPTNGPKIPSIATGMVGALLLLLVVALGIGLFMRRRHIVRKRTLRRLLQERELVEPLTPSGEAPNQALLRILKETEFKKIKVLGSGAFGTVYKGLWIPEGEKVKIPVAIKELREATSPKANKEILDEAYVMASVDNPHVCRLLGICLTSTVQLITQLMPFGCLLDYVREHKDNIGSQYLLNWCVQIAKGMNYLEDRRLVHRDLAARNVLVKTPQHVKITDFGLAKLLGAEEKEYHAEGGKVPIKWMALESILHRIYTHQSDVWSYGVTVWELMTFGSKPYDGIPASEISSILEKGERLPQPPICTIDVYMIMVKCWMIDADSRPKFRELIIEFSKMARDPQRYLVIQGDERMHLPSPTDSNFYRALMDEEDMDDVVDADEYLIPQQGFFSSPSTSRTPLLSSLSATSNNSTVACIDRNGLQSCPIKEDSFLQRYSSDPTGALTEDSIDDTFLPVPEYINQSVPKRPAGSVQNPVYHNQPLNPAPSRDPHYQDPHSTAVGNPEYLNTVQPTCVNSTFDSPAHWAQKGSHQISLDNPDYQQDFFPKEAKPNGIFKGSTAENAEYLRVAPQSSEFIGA

On to `COc1cc2ncnc(Nc3ccc(F)c(Cl)c3)c2cc1OCCCN1CCOCC1` [GEFITINIB], for which the Activity in the assay on Mus musculus [1] stood at 3.39 µg/mg; in the assay on Mus musculus [2] it was 2.17 pg/mL; in the assay on Mus musculus [3], 1.77 pg/mL; in the assay on Mus musculus [4], 2.39 pg/mL; in the assay on Mus musculus [5] it was 8.92 nmol/mL; in the assay with Mus musculus [6], 9.7 g. Moreover, the outcome in the assay with Mus musculus [7] was Active.
With `COc1cc2ncnc(Nc3ccc(F)c(Cl)c3)c2cc1OCCCN1CC[Se]CC1`, the result in the assay on Mus musculus [8] and in the assay on Mus musculus [7] was Active. In addition, the values for the IC50 (with L02; in assay [9]; in [10]) were 13.8 µM, 0.0253 µM and 21.8 µM, respectively. Further, the Activity is 3.01 µg/mg with Mus musculus [1]; 1.72 pg/mL with Mus musculus [2]; 1 pg/mL with Mus musculus [3]; 1.56 pg/mL with Mus musculus [4]; 6.13 nmol/mL with Mus musculus [5]; 7.56 g with Mus musculus [6].
